We go through 25 molecules from patent US8269000B2, “Substituted pyrimidine and triazine compounds” (Gruenenthal GmbH, priority 2008, dated 2012).

One test has as its target T1, rat B1R (Rattus norvegicus, UniProt P97583).
T1 construct: expressed in transfected cells; host or cells: CHO K1 cells
T1 sequence (P97583 1-337): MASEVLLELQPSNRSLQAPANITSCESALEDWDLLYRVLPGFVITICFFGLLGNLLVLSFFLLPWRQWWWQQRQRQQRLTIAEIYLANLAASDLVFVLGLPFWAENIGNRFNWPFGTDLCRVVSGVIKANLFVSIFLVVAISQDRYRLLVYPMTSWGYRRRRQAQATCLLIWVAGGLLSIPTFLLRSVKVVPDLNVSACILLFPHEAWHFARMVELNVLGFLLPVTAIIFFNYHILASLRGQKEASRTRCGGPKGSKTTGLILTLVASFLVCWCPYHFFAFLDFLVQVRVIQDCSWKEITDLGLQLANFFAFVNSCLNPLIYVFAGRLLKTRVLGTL
As to the kind of experiment: FLIPR Ca2+ functional study on bradykinin receptor 1 (rB1R CHO K1 cells). In kind it is cell-based. The following applies: % inhibition rat B1R at 10 μM. The essentials: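 Antagonism was calculated as % of maximal inhibition of the Ca2+ rise triggered by agonist at EC80 (Lys-Des-Arg9-bradykinin for hB1R, Des-Arg9-bradykinin for rB1R), added 10-20 min after test compound (10 μM or serial dilutions for IC50) to Fluo-4-loaded transfected CHO K1 cells on FLIPR. Duplicates or triplicates, ≥2 independent runs.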
Turning to `COc1cc(C)c(S(=O)(=O)N2CCCCC2COc2nccc(N3CCC(c4cccs4)(N(C)C)CC3)n2)c(C)c1` (stereo not shown) [G_CC-070, [1-[2-[[1-[(4-methoxy-2,6-dimethyl-phenyl)sulfonyl]-piperidin-2-yl]-methoxy]-pyrimidin-4-yl]-4-thiophen-2-yl-pipendin-4-yl]-dimethyl-amine], the “% inh. (rat B1R) 10 μM” value came to 95%.
For the molecule `COc1cc(C)c(S(=O)(=O)N2c3ccccc3C[C@H]2COc2ccnc(N3CCC(CCN4CCCC4)CC3)n2)c(C)c1` [H_CC-017, (2S)-1-(4-methoxy-2,6-dimethylphenyl)sulfonyl-2-[[2-[4-(2-1-pyrrolidinylethyl)-1-pipendinyl]-4-pyrimidinyl]oxymethyl]indoline], the “% inh. (rat B1R) 10 μM” value was 93%.
The same measure, in the same setting: the result for “(1S,5R)-8-[4-[[(2S)-1-[(4-methoxy-2,6-dimethyl-phenyl)sulfonyl]-pyrrolidin-2-yl]-methoxy]-pyrimidin-2-yl]-3-pyridin-4-yloxy-8-azabicyclo[3.2.1]octane [H_CC-052]” reads 72%.
The same measure, in the same setting: the same measure for `COc1cc(C)c(S(=O)(=O)N2CCCCC2COc2ccnc(N3CCC(CCN4CCCCC4)CC3)n2)c(C)c1` (stereo not shown) [H_CC-022]: 77%.

The same test, now with this note: CHO-K1, % inhibition rat B1R at 10 μM, read-out: % inh. (rat B1R) 10 μM.
Take `COc1cc(C)c(S(=O)(=O)N2CC(Oc3ccnc(N4CCCN(Cc5ccccn5)CC4)n3)C2)c(C)c1` [H_CC-077, 1-[4-[1-[(4-methoxy-2,6-dimethyl-phenyl)sulfonyl]-azetidin-3-yl]oxy-pyrimidin-2-yl]-4-(pyridin-2-yl-methyl)-[1,4]diazepan]: the inhibition at 10 µM was determined as 58%.
`COc1cc(C)c(S(=O)(=O)N(C)CCOc2ccnc(N3CCCC3Cc3ccccn3)n2)c(C)c1` (stereo not shown) [H_CC-087, 4-methoxy-N,2,6-trimethyl-N-[2-[2-[2-(pyridin-2-yl-methyl)-pyrrolidin-1-yl]-pyrimidin-4-yl]oxy-ethyl]-benzenesulfonic acid amide]: the inhibition at 10 µM came out at 57%.
The same measure, in the same setting: the result for `COc1cc(C)c(S(=O)(=O)N(C)C(COc2nccc(N3CCCC3Cc3ccccn3)n2)c2ccccc2)c(C)c1` (stereo not shown) [G_CC-133, 4-methoxy-N,2,6-trimethyl-N-[1-phenyl-2-[4-[2-(pyridin-2-yl-methyl)-pyrrolidin-1-yl]-pyrimidin-2-yl]oxy-ethyl]benzenesulfonic acid amide] reads 78%.
With `COc1cc(C)c(S(=O)(=O)N2CCC[C@H]2COc2ccnc(N(C)CCN3CCC(c4ccccc4)(N(C)C)CC3)n2)c(C)c1` [H_CC-054, 2-(4-dimethylamino-4-phenyl-piperidin-1-yl)-ethyl-[4-[[(2S)-1-[(4-methoxy-2,6-dimethyl-phenyl)sulfonyl]-pyrrolidin-2-yl]-methoxy]-pyrimidin-2-yl]-methyl-amine], the inhibition at 10 µM stood at 83%.
Regarding `COc1cc(C)c(S(=O)(=O)N(C)C(COc2nccc(N3CCC(C)(N4CCOCC4)CC3)n2)c2ccccc2)c(C)c1` (stereo not shown) [G_CC-137, 4-methoxy-N,2,6-trimethyl-N-[2-[4-(4-methyl-4-morpholin-4-yl-piperidin-1-yl)-pyrimidin-2-yl]oxy-1-phenyl-ethyl]benzenesulfonic acid amide], the inhibition at 10 µM is 77%.
On the same count and under the same terms, the same measure for `COc1cc(C)c(S(=O)(=O)N2CCCCC2COc2ccnc(N3CCC(c4cccc(F)c4)(N4CCN(C)CC4)CC3)n2)c(C)c1` (stereo not shown) [H_CC-091, 2-[4-(3-fluorophenyl)-4-(4-methyl-piperazin-1-yl)-piperidin-1-yl]-4-[[1-[(4-methoxy-2,6-dimethyl-phenyl)sulfonyl]-piperidin-2-yl]-methoxy]-pyrimidine]: 73%.
With `COc1cc(C)c(S(=O)(=O)N2CCC[C@H]2COc2nccc(N3CCC(O)(c4ccccn4)CC3)n2)c(C)c1` [G_CC-083, 1-[2-[[(2S)-1-[(4-methoxy-2,6-dimethyl-phenyl)sulfonyl]-pyrrolidin-2-yl]-methoxy]-pyrimidin-4-yl]-4-pyridin-2-yl-piperidin-4-ol], the inhibition at 10 µM was 62%.
With `COc1cc(C)c(S(=O)(=O)N2CCC[C@H]2COc2nccc(N3CCC(c4ccccc4)(N4CCCC4)CC3)n2)c(C)c1` [G_CC-115, 2-[[(2S)-1-[(4-methoxy-2,6-dimethyl-phenyl)sulfonyl]-pyrrolidin-2-yl]-methoxy]-4-(4-phenyl-4-pyrrolidin-1-yl-piperidin-1-yl)-pyrimidine], the inhibition at 10 µM came out at 81%.
On the same count and under the same terms, the result for `COc1cc(C)c(S(=O)(=O)N(C)C(COc2nccc(N3CCN(C(=O)c4cccnc4)CC3)n2)c2ccccc2)c(C)c1` (stereo not shown) [G_CC-064, 4-methoxy-N,2,6-trimethyl-N-[2-[[4-[4-[oxo-(3-pyridyl)methyl]-1-piperazinyl]-2-pyrimidinyl]oxy]-1-phenylethyl]benzenesulfonamide] reads 55%.
The same measure, in the same setting: the same measure for `COc1cc(C)c(S(=O)(=O)N(C)C(COc2nccc(N3CC4CC3CN4Cc3ccc(F)cc3)n2)c2ccccc2)c(C)c1` (stereo not shown) [G_CC-065, N-[2-[[4-[2-[(4-fluorophenyl)methyl]-2,5-diazabicyclo[2.2.1]heptan-5-yl]-2-pyrimidinyl]oxy]-1-phenylethyl]-4-methoxy-N,2,6-trimethylbenzenesulfonamide]: 58%; for `COc1cc(C)c(S(=O)(=O)N2CCCCC2COc2nccc(N(C)CCN3CCC(O)(c4cccnc4)CC3)n2)c(C)c1` (stereo not shown) [G_CC-106, 1-[2-[[2-[[1-[(4-methoxy-2,6-dimethyl-phenyl)sulfonyl]-piperidin-2-yl]-methoxy]-pyrimidin-4-yl]-methyl-amino]ethyl]-4-pyridin-3-yl-piperidin-4-ol]: 95%; for `COc1cc(C)c(S(=O)(=O)N2CC(Oc3ccnc(N4CCC(O)(c5cccnc5)CC4)n3)C2)c(C)c1` [H_CC-076, 1-[4-[1-[(4-methoxy-2,6-dimethyl-phenyl)sulfonyl]-azetidin-3-yl]oxy-pyrimidin-2-yl]-4-pyridin-3-yl-piperidin-4-ol]: 69%.
For `COc1cc(C)c(S(=O)(=O)N2CCC[C@H]2COc2nccc(N3CCC4(CC3)C(=O)N(C)CC4c3ccc(F)cc3)n2)c(C)c1` (stereo partly drawn) [G_CC-050, 1-(4-fluorophenyl)-8-[2-[[(2S)-1-(4-methoxy-2,6-dimethylphenyl)sulfonyl-2-pyrrolidinyl]methoxy]-4-pyrimidinyl]-3-methyl-3,8-diazaspiro[4.5]decan-4-one], the inhibition at 10 µM is 73%.
Same read-out and setting: the result for `COc1cc(C)c(S(=O)(=O)N2CC(Oc3nccc(N4CCN(CC5CCN(C)CC5)CC4)n3)C2)c(C)c1` [G_CC-077, 2-[1-[(4-methoxy-2,6-dimethyl-phenyl)sulfonyl]-azetidin-3-yl]oxy-4-[4-[(1-methyl-piperidin-4-yl)methyl]-piperazin-1-yl]-pyrimidine] reads 92%.
The same measure, in the same setting: the same measure for `COc1cc(C)c(S(=O)(=O)N2CCC[C@H]2COc2ccnc(N3CCCC3Cc3ccccn3)n2)c(C)c1` (stereo partly drawn) [H_CC-088, 4-[[(2S)-1-[(4-methoxy-2,6-dimethyl-phenyl)sulfonyl]-pyrrolidin-2-yl]-methoxy]-2-[2-(pyridin-2-yl-methyl)-pyrrolidin-1-yl]-pyrimidine]: 67%; for `COc1cc(C)c(S(=O)(=O)N2CCC[C@H]2COc2ccnc(N3CCC(c4ccccc4)(N(C)C)CC3)n2)c(C)c1` [H_CC-085, [1-[4-[[(2S)-1-[(4-methoxy-2,6-dimethyl-phenyl)sulfonyl]-pyrrolidin-2-yl]-methoxy]-pyrimidin-2-yl]-4-phenyl-piperidin-4-yl]-dimethyl-amine]: 70%; for `COc1cc(C)c(S(=O)(=O)N2CC(Oc3ccnc(N4CCC(N5CCN(C)CC5)CC4)n3)C2)c(C)c1` [H_CC-015, 4-[[1-(4-methoxy-2,6-dimethylphenyl)sulfonyl-3-azetidinyl]oxy]-2-[4-(4-methyl-1-piperazinyl)-1-piperidinyl]pyrimidine]: 56%.
Turning to `COc1cc(C)c(S(=O)(=O)N2CCC[C@H]2COc2nccc(N3CC4CC3CN4Cc3ccncc3)n2)c(C)c1` (stereo partly drawn) [G_CC-058, 5-[2-[[(2S)-1-(4-methoxy-2,6-dimethylphenyl)sulfonyl-2-pyrrolidinyl)methoxy]-4-pyrimidinyl]-2-(4-pyridylmethyl)-2,5-diazabicyclo[2.2.1]heptane], the inhibition at 10 µM came out at 93%.
The same measure, in the same setting: the same measure for `COc1cc(C)c(S(=O)(=O)N2CCCCC2COc2nccc(N3CCN(c4ncccn4)CC3)n2)c(C)c1` (stereo not shown) [G_CC-012, 2-[[1-(4-methoxy-2,6-dimethylphenyl)sulfonyl-2-piperidinyl]methoxy]-4-[4-(2-pyrimidinyl)-1-piperazinyl]pyrimidine]: 76%; for `COc1cc(C)c(S(=O)(=O)N(C)CCOc2nccc(N3CCC4(CCN(Cc5ccc(F)cc5)C4=O)CC3)n2)c(C)c1` [G_CC-045, N-[2-[[4-[3-[(4-fluorophenyl)methyl]-4-oxo-3,8-diazaspiro[4.5]decan-8-yl]-2-pyrimidinyl]oxy]ethyl]-4-methoxy-N,2,6-trimethylbenzenesulfonamide]: 96%; for `COc1cc(C)c(S(=O)(=O)N2CCC[C@@H]2COc2nccc(N3CCCC3Cc3ccccn3)n2)c(C)c1` (stereo partly drawn) [G_CC-084, 2-[[(2R)-1-[(4-methoxy-2,6-dimethyl-phenyl)sulfonyl]-pyrrolidin-2-yl]-methoxy]-4-[2-(pyridin-2-yl-methyl)-pyrrolidin-1-yl]-pyrimidine]: 83%.
